Columns and labels:
Test in all cases: cell viability (% survival relative to DMSO control, bortezomib = 0%); higher = less cytotoxic
Details in all cases: 72 h
KCL-22 = tested on: KCL-22
Method in brief: (§1)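 In 384-well plates pre-printed with compounds at 1, 10, 100, 1000 or 10000 nM, duplicate wells received cells from 10 AML and 5 CML lines at densities within the linear growth range. The plates stayed at 37 °C with 5% CO2 for 72 h before CellTiter-Glo luminescence was recorded. Each entry is averaged percent survival. Scaling placed vehicle at 100% and a 10 µM positive control at 0%.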

ML-2 = tested on: ML-2
Method in brief: as §1

K-562 = tested on: K-562
Method in brief: as §1

BV-173 = tested on: BV-173
Method in brief: as §1

| Structure (SMILES) | cell viability (KCL-22; 1 nM) | cell viability (KCL-22; 10 nM) | cell viability (KCL-22; 100 nM) | cell viability (KCL-22; 1000 nM) | cell viability (KCL-22; 10000 nM) | cell viability (ML-2; 1 nM) | cell viability (ML-2; 10 nM) | cell viability (ML-2; 100 nM) | cell viability (ML-2; 1000 nM) | cell viability (ML-2; 10000 nM) | cell viability (K-562; 1 nM) | cell viability (K-562; 10 nM) | cell viability (K-562; 100 nM) | cell viability (K-562; 1000 nM) | cell viability (K-562; 10000 nM) | cell viability (BV-173; 1 nM) | cell viability (BV-173; 10 nM) | cell viability (BV-173; 100 nM) | cell viability (BV-173; 1000 nM) | cell viability (BV-173; 10000 nM) |
| --- | --- | --- | --- | --- | --- | --- | --- | --- | --- | --- | --- | --- | --- | --- | --- | --- | --- | --- | --- | --- |
| CC(/C=C1\SC(=S)N(CC(=O)O)C1=O)=C\c1ccccc1 [Epalrestat] | 106% | 99.8% | 100% | 101% | 102% | 99.7% | 101% | 99.8% | 104% | 112% | 114% | 102% | 109% | 99.5% | 100% | 101% | 95.1% | 96.7% | 106% | 112% |
| CCOC(=O)[C@@]1(CCCCCCOc2ccc(Cl)cc2)CO1 [Etomoxir] | 104% | 112% | 116% | 101% | 78.9% | 109% | 109% | 114% | 87.6% | 99.9% | 113% | 95.8% | 86.5% | 93.2% | 71.8% | 94.8% | 105% | 88.8% | 64.8% | 57.8% |
| Cc1c(-c2ccccc2)oc2c(C(=O)OCCN3CCCCC3)cccc2c1=O.Cl [Flavoxate] | 94.6% | 93.2% | 102% | 95.6% | 87% | 99.1% | 99.5% | 105% | 101% | 103% | 91% | 90% | 89.8% | 98.8% | 83.2% | 86.9% | 100% | 95.6% | 94.1% | 97.9% |
| O=C(O)CCc1ccc(NCc2cccc(Oc3ccccc3)c2)cc1 [GW9508] | 101% | 89.5% | 89.6% | 102% | 93.4% | 84.3% | 103% | 95.8% | 112% | 103% | 109% | 88.8% | 100% | 94.2% | 120% | 92.9% | 112% | 97.1% | 124% | 135% |
| c1ccc2c(c1)OCC(=C1NCCN1)O2 [Idazoxan] | 105% | 104% | 78.6% | 91% | 87.4% | 97.4% | 97.9% | 86.9% | 94.2% | 93.7% | 80% | 98.1% | 90.7% | 100% | 90.9% | 87.3% | 108% | 80.7% | 89.3% | 73.2% |
| C[C@]12O[C@H](C[C@]1(O)CO)n1c3ccccc3c3c4c(c5c6ccccc6n2c5c31)CNC4=O [Lestaurtinib] | 104% | 91% | 59.6% | 21.8% | 1.08% | 107% | 84.4% | 61.4% | 9.84% | 0.0251% | 94.2% | 94.3% | 64.5% | 13.5% | 2.74% | 93.9% | 65.2% | 28.2% | 22.5% | -0.238% |
| O=C(O)c1nn(Cc2ccc(Cl)cc2Cl)c2ccccc12 [Lonidamine] | 103% | 111% | 107% | 84% | 90.7% | 102% | 106% | 101% | 93.7% | 95.1% | 94.2% | 104% | 118% | 98.4% | 82.6% | 104% | 89.4% | 108% | 90.1% | 94.5% |
| C1CCc2nnc(C34CC5CC(CC(C5)C3)C4)n2CC1 [MERCK-544] | 99.2% | 106% | 95.8% | 106% | 116% | 101% | 97.5% | 93.5% | 87.7% | 96.6% | 109% | 117% | 89.3% | 103% | 129% | 107% | 66.3% | 85.7% | 94.7% | 92.2% |
| CC(Cc1ccc(O)c(O)c1)C(C)Cc1ccc(O)c(O)c1 (centres undefined) [Masoprocol] | 99.8% | 85.9% | 120% | 108% | 66.2% | 99.2% | 103% | 96.1% | 101% | 3.98% | 87.2% | 109% | 105% | 95.8% | 76.7% | 104% | 88.1% | 101% | 104% | 5.25% |
| CC(C(=O)O)C(=O)O [Methylmalonate] | 91.7% | 100% | 112% | 88.3% | 93.6% | 87.4% | 96.5% | 96.6% | 92.2% | 87.9% | 95.3% | 101% | 106% | 95.2% | 107% | 92.5% | 89.2% | 104% | 98.3% | 96.1% |
| COc1c(C)c2c(c(O)c1C/C=C(\C)CCC(=O)O)C(=O)OC2 [Mycophenolic acid] | 105% | 98.8% | 79.8% | 24.7% | 8.9% | 116% | 105% | 86.5% | 22.7% | 8.02% | 91.3% | 102% | 91.5% | 36.5% | 13.6% | 104% | 98.8% | 115% | 29.9% | -0.741% |
| C1CCC(C(CC2CCCCN2)C2CCCCC2)CC1.O=C(O)/C=C\C(=O)O (centres undefined) [Perhexiline] | 92% | 79.3% | 94.3% | 101% | 1.14% | 76.3% | 87.2% | 89.7% | 92.8% | 0.081% | 98.5% | 97.3% | 110% | 103% | 0.792% | 87.1% | 96.1% | 93.8% | 98.9% | 0.141% |
| OCCN1CCN(CCCN2c3ccccc3Sc3ccc(Cl)cc32)CC1 [Perphenazine] | 122% | 107% | 102% | 111% | 39.6% | 99.6% | 95.4% | 96.6% | 101% | 34.4% | 108% | 97.3% | 81.8% | 92% | 0.308% | 127% | 97.3% | 89.9% | 117% | 23.2% |
| C=CCc1ccc2c(c1O)C(=O)c1ccccc1C2=O [R162] | 100% | 98.3% | 101% | 96.6% | 96.7% | 99.4% | 99.2% | 97.8% | 101% | 90.8% | 99.5% | 95.2% | 94% | 118% | 98.5% | 101% | 97% | 89.9% | 125% | 118% |
| O=C(c1ccc(OCCN2CCCCC2)cc1)c1c(-c2ccc(O)cc2)sc2cc(O)ccc12 [Raloxifene] | 93.9% | 92.7% | 100% | 94.5% | 75.8% | 101% | 91.2% | 101% | 96.9% | 82.9% | 99.7% | 99.3% | 98.5% | 98.8% | 77.3% | 93% | 95.9% | 98.2% | 107% | 92.7% |
| NC(=O)c1ncn([C@@H]2O[C@H](CO)[C@@H](O)[C@H]2O)n1 [Ribavirin] | 72.9% | 104% | 114% | 107% | 103% | 95.4% | 103% | 97.7% | 94.3% | 111% | 82.4% | 95.1% | 119% | 107% | 103% | 93.7% | 106% | 112% | 101% | 91.4% |
| Nc1ncnc2c1ncn2[C@@H]1O[C@H](CSCC[C@H](N)C(=O)O)[C@@H](O)[C@H]1O [S-Adenosyl Homocysteine] | 97.5% | 113% | 98.5% | 94.5% | 102% | 102% | 102% | 101% | 107% | 103% | 102% | 104% | 105% | 104% | 98.8% | 98.5% | 83.9% | 99.1% | 104% | 104% |
| CCCc1nn(C)c2c(O)nc(-c3cc(S(=O)(=O)N4CCN(C)CC4)ccc3OCC)nc12 [Sildenafil] | 89.7% | 102% | 97.5% | 88.7% | 113% | 92.3% | 103% | 93.1% | 109% | 107% | 91.1% | 93% | 94.9% | 110% | 103% | 87.4% | 106% | 94.4% | 109% | 92.1% |
| Cc1coc2c1C(=O)C(=O)c1c-2ccc2c(C)cccc12 [Tanshinone I] | 125% | 100% | 108% | 111% | 59.5% | 113% | 114% | 97.8% | 103% | 71.1% | 98.6% | 100% | 106% | 82.7% | 79.8% | 109% | 103% | 92% | 94% | 83.6% |
| CCOC(=O)N1c2ccc(C(F)(F)F)cc2[C@@H](N(Cc2cc(C(F)(F)F)cc(C(F)(F)F)c2)C(=O)OC)C[C@H]1CC [Torcetrapib] | 105% | 107% | 126% | 98.3% | 86.8% | 89.8% | 97% | 118% | 80.9% | 57.8% | 103% | 109% | 121% | 98.6% | 94.4% | 82.9% | 94% | 67% | 49.3% | 26.9% |
| Oc1cc(Cl)ccc1Oc1ccc(Cl)cc1Cl [Triclosan] | 115% | 98.3% | 89.7% | 105% | 65.5% | 101% | 104% | 102% | 114% | 93.5% | 103% | 105% | 93.8% | 106% | 66.6% | 98% | 120% | 107% | 98.4% | 105% |
| COc1cc2c(NC3CCN(C)CC3)nc(N3CCCN(C)CC3)nc2cc1OCCCN(C)C [UNC0224] | 98.2% | 134% | 97.6% | 94.9% | 90.7% | 94% | 111% | 95% | 99.6% | 97.2% | 95% | 106% | 102% | 102% | 88.8% | 109% | 117% | 103% | 91.6% | 83.3% |
| CC(C)C[C@H](NC(=O)[C@@H](O)[C@H](N)Cc1ccccc1)C(=O)O [Ubenimex] | 118% | 120% | – | 89.2% | 95.2% | 108% | 109% | 101% | 87.3% | 99.8% | 111% | 102% | 113% | 89.6% | 102% | 97.5% | 110% | 90.8% | 78.9% | 99.9% |
| O=P(O)(O)C(O)(Cn1ccnc1)P(=O)(O)O [Zoledronic acid] | 107% | 103% | 102% | 104% | 97.4% | 80.5% | 94.9% | 92.6% | 105% | 102% | 105% | 101% | 106% | 98.6% | 102% | 101% | 109% | 88.8% | 97% | 99% |
